The values that follow come from patent USRE47689E1, “Compounds for treating spinal muscular atrophy” (PTC Therapeutics, Inc., priority 2011, dated 2019).

The test system of experiment [1] is SMN2 minigene (full length SMN2 minigene mRNA containing SMN2 exon 7). Put plainly: SMN2 minigene mRNA splicing RT-qPCR assay in cultured cells. Format: cell-based, human. To be noted: HEK293H cells stably transfected with SMN2-A minigene, 24 hours, 7-point concentration curve, 1.5-fold relative to vehicle-treated cells; for EC (1.5-fold): Homo sapiens, HEK293-H, read-out: EC1.5x for production of full length SMN2 mRNA. In short, it runs like this: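 HEK293H cells stably carrying the SMN2-A minigene treated 24 h at 37° C with compound (DMSO, 200× stock), then lysed. Multiplex RT-qPCR (SMN primers 0.4 μM final; 40 cycles) measures full-length exon 7-containing minigene mRNA, normalized to GAPDH and to vehicle; EC1.5x derived and binned by stars.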

Another experiment relates to Smn protein. The experiment is described as follows: Smn protein assay in cultured cells (SMN HTRF). The class given is cell-based, human. To be noted: 48 hours; for maximum fold (Fold) increase of Smn protein: SMA patient fibroblast cells, 7-point concentration data, fold increase relative to vehicle control (SMN HTRF); for EC1.5x (concentration giving 1.5-fold Smn protein increase): SMA Type 1 patient fibroblast cells (GM03813), 7-point concentration curve, SMN HTRF, concentration producing 1.5 times Smn protein vs DMSO vehicle control, read-out: EC1.5x for Smn protein expression. In short, it runs like this:
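Lysates in RIPA with protease inhibitors are incubated overnight at room temperature with HTRF anti-SMN antibodies. EC1.5x is derived from fold increase in ΔF over vehicle.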

For the compound “3-(6-chloroimidazo[1,2-a]pyrimidin-2-yl)-7-(piperazin-1-yl)-2H-chromen-2-one [Compound 348]”, in experiment [1], the “EC1.5x for production of full length SMN2 mRNA” value is “** (between >1 μM and ≤3 μM)”. For the same compound, the “maximum fold (Fold) increase of Smn protein” value (“maximum fold (Fold) increase” for short) with Smn protein is “* (maximum fold increase of ≤1.2)”.
In the case of `Cc1cn2cc(-c3cc4ccc(CCNCCO)cc4oc3=O)nc2c(C)n1` [Compound 870, 3-(6,8-dimethylimidazo[1,2-a]pyrazin-2-yl)-7-{2-[(2-hydroxyethyl)amino]ethyl}-2H-chromen-2-one], the EC (1.5-fold) in experiment [1] was less than 0.1 µM. In the experiment with Smn protein, the EC1.5x (concentration giving 1.5-fold Smn protein increase) was less than 300 nM; the “maximum fold (Fold) increase” value was “**** (fold increase between >1.5 and ≤1.65)”.
In the case of `Cc1cn2cc(-c3cc4ccc(N5CCN(C)[C@@H](C(C)C)C5)cc4oc3=O)nc2c(C)n1` [Compound 809, 3-(6,8-dimethylimidazo[1,2-a]pyrazin-2-yl)-7-[(3S)-4-methyl-3-(propan-2-yl)piperazin-1-yl]-2H-chromen-2-one], the EC (1.5-fold) in experiment [1] was in the range of 0.3 to 1 µM. For the same compound, in the experiment on Smn protein, the EC1.5x (concentration giving 1.5-fold Smn protein increase) fell in the range of 1000 to 3000 nM; the “maximum fold (Fold) increase” value is “**** (fold increase between >1.5 and ≤1.65)”.
As for `Cc1cccc2oc(-c3cc4ccc(N5CCNCC5)cc4oc3=O)nc12.Cl` [Compound 22, 3-(4-methyl-1,3-benzoxazol-2-yl)-7-(piperazin-1-yl)-2H-chromen-2-one hydrochloride], in experiment [1], the EC (1.5-fold) fell in the range of 3 to 30 µM. Besides, the “maximum fold (Fold) increase” value with Smn protein is reported as “* (maximum fold increase of ≤1.2)”.
As to `CCN1[C@H](C)CN(c2ccc3cc(-c4cn5cc(C)ncc5n4)c(=O)oc3c2)C[C@@H]1C` [Compound 797, 7-[(3R,5S)-4-ethyl-3,5-dimethylpiperazin-1-yl]-3-(6-methylimidazo[1,2-a]pyrazin-2-yl)-2H-chromen-2-one], the EC (1.5-fold) in experiment [1] is less than 0.1 µM. In the experiment on Smn protein, the EC1.5x (concentration giving 1.5-fold Smn protein increase) is less than 300 nM; the “maximum fold (Fold) increase” value is “**** (fold increase between >1.5 and ≤1.65)”.
In the case of `CN(C)CCN(C)c1ccc2cc(-c3nc4ccccc4o3)c(=O)oc2c1` [Compound 49, 3-(1,3-benzoxazol-2-yl)-7-{[2-(dimethylamino)ethyl](methyl)amino}-2H-chromen-2-one], the EC (1.5-fold) in experiment [1] is 3 to 30 µM. In the experiment on Smn protein, the “maximum fold (Fold) increase” value is “* (maximum fold increase of ≤1.2)”.
As for `Cc1cn2cc(-c3cc4ccc(N5CCC(O)CC5)cc4oc3=O)nc2c(C)n1` [Compound 975, 3-(6,8-dimethylimidazo[1,2-a]pyrazin-2-yl)-7-(4-hydroxypiperidin-1-yl)-2H-chromen-2-one], the EC (1.5-fold) in experiment [1] fell in the range of 0.3 to 1 µM. The “maximum fold (Fold) increase” value in the experiment with Smn protein is “*** (fold increase between >1.35 and ≤1.5)”.
On to `Cc1cn2cc(-c3cc4ccc(N5CCN(C)CC5)cc4oc3=O)cc(F)c2n1` [Compound 982, 3-(8-fluoro-2-methylimidazo[1,2-a]pyridin-6-yl)-7-(4-methylpiperazin-1-yl)-2H-chromen-2-one], for which the EC (1.5-fold) in experiment [1] was less than 0.1 µM. In the experiment with Smn protein, the EC1.5x (concentration giving 1.5-fold Smn protein increase) is less than 300 nM and the “maximum fold (Fold) increase” value is recorded as “***** (fold increase >1.65)”.
For `Cc1cn2cc(-c3cc4ccc(N5C[C@@H]6CCCN(C)[C@@H]6C5)cc4oc3=O)nc2c(C)n1` [Compound 795, 3-(6,8-dimethylimidazo[1,2-a]pyrazin-2-yl)-7-[(4aS,7aS)-1-methyloctahydro-6H-pyrrolo[3,4-b]pyridin-6-yl]-2H-chromen-2-one], the EC (1.5-fold) in experiment [1] was less than 0.1 µM. Also, in the experiment with Smn protein, the EC1.5x (concentration giving 1.5-fold Smn protein increase) was less than 300 nM; the “maximum fold (Fold) increase” value is “**** (fold increase between >1.5 and ≤1.65)”.
Take `Cc1nc(Cl)cn2cc(-c3cc4ccc(N5C[C@@H]6C[C@H]5CN6)cc4oc3=O)nc12` [Compound 780, 3-(6-chloro-8-methylimidazo[1,2-a]pyrazin-2-yl)-7-[(1S,4S)-2,5-diazabicyclo[2.2.1]hept-2-yl]-2H-chromen-2-one]: the EC (1.5-fold) in experiment [1] was less than 0.1 µM. For the same compound, in the experiment with Smn protein, the EC1.5x (concentration giving 1.5-fold Smn protein increase) is less than 300 nM; the “maximum fold (Fold) increase” value is “**** (fold increase between >1.5 and ≤1.65)”.
